The values that follow come from patent publication US20180161310A1, “COMPOUNDS AND METHODS FOR THE TREATMENT OF NEUROLOGICAL DISORDERS” (Teleos Therapeutics, LLC, priority 2016, published 2018).

Data set [1] addresses Nav1.1 (Homo sapiens, UniProt P35498).
Data set [2] has as its target Nav1.2 (Homo sapiens, UniProt Q99250).
The target in data set [3] is Nav1.6 (Homo sapiens, UniProt Q9UQD0).
Data set [4] has as its system VU0463271-induced phenotype (KCC2 inhibition) in zebrafish larvae. Put plainly: animal or person. The note with it: for suppression score dose response compared with other compounds as suppressor of the hyperexcitability phenotype: zebrafish, FIG. 8 / FIG. 10. How it is done: To quantify the ability of the same drugs to reverse (or “rescue”) the phenotype caused by either 2.5 μM VU0463271 or 5 μM VU0240551, a rescue score between 0 (no rescue) and 1 (maximal theoretical rescue) was calculated (FIG. 2C). A rescue score incorporates and quantifies the degree of phenotypic reversal and the level of sedation in each concentration tested (see Materials and Methods below).
A diverse collection of 37,000 uncharacterized small molecules were used in a suppressor screen against either 2.5 μM VU0463271 (27,000 compounds) or 5 μM VU0240551 (10,000 compounds), along with 3,700 control wells treated with DMSO alone and 3,700 control wells treated with the KCC2 inhibitor. Each well of a 96-well plate containing at least about 8 zebrafish larvae was treated with a library compound or DMSO followed by treatment with the KCC2 inhibitor. Behavioral profiles pre- and post-treatment with the KCC2 inhibitor were evaluated using the behavioral assay battery described herein, and a detailed quantitative readout of about 15,000 time points was generated for each well. These behavioral profiles were used to calculate a screening score for each library compound, which incorporates and quantifies the rescue score and sedation index (see Materials and Methods).
In some cases, small molecules that alter the KCC2 inhibition phenotype may reverse the behavioral phenotype back to the normal, but could also elicit a new undesired phenotype, which is different from a normal behavior. To discriminate between these possibilities, vector algebra was used to compare each behavioral profile to the behavioral profile of DMSO-treated larvae and defined a value for the phenotypic distance from DMSO. The screen score of each compound was then plotted against its averaged phenotypic distance from DMSO (FIG. 3A) and MI (FIG. 3B) to filter out compounds that elicit a profile that is very different from the control one and compounds that reduce overall activity, respectively.
The reproducibility of the effects and the active concentration ranges of the 30 hits selected, as described above, were determined. Their rescue efficacies were retested in at least six concentrations and their rescue scores were also recalculated.
TT0023831 and six analogs were tested at a range of doses from 2.5-320 uM in a behavioral assay designed to assess the ability of compounds to suppress the effects of KCC2 inhibition. The graphs of FIG. 11 indicate the degree of suppression of the KCC2-inhibited phenotype, where a score of 1 represents complete restoration of KCC2-treated zebrafish to normal. […] Table 4 summarizes the estimated EC50 values and peak effect values for each compound.
A large number of fertilized zebrafish eggs (up to 20,000 embryos per day) were collected from group matings of wild type Ekkwill/Singapore zebrafish. Embryos were raised in hatching jars at 28° C. on a 14/10 hour light/dark cycle until 3 days post fertilization (dpf), then transferred to an incubator under the same conditions until 7 dpf. Groups of eight larvae (7 dpf) were distributed into the wells of a clear flat bottom square well 96-well plates filled with E3 medium (300 μl). Larvae were then incubated at 25° C. on the bench top for one-hour chemical treatment and subsequent experiments.
A library containing 37,000 uncharacterized small molecules was purchased from Life Chemicals and dissolved in DMSO at a stock concentration of 10 mM.

Data set [5] concerns PTZ-induced behavior in zebrafish larvae. The data set can be described thus: Suppression of PTZ-induced behavior in zebrafish larvae. It counts as in vivo. The note with it: pre-treatment with 6 concentrations, then 5 mM PTZ. As for the experimental part: Differences between behavioral profiles of larval zebrafish treated with KCC2 inhibitors and larval zebrafish treated with PTZ were investigated by evaluating the ability of traditional anti-seizure drugs to reverse their effects. Five drugs in at least six concentrations (by allocating 12 wells per concentration) were tested. These drugs included a benzodiazepine anxiolytic (diazepam), two AEDs that increase GABA levels in the synapse (tiagabine and valproate), a sodium channel blocker (phenytoin) and a synthetic neurosteroid GABAA positive allosteric modulator (PAM, ganaxolone).

Data set [6] has as its system mouse 6 Hz 44 mA model. The data set can be described thus: Mouse 6 Hz 44 mA model of epilepsy. The note with it: animals protected from seizures / number tested. The data set is classed as in vivo. As for the experimental part: (§1) TT0023831 and TT0042607 were tested in mammalian models of epilepsy. The two compounds were tested in the mouse 6 Hz 44 mA model and the mouse maximal electroshock (MES) model. A range of doses was examined, and results were reported as the number of animals protected from seizures out of the number tested (Table 5).

In data set [7] the test system is mouse maximal electroshock (MES) model. The data set can be described thus: Mouse maximal electroshock (MES) model. It counts as in vivo. The note with it: animals protected from seizures / number tested. As for the experimental part:
as §1
In general terms: Protection in the maximal electroshock model is a classic sign of anticonvulsant action.

In data set [8] the test system is cultured rat hippocampal neurons. Put plainly: Gramicidin perforated patch clamp in cultured hippocampal neurons. It counts as cell-based. How it is done: Referring to FIG. 9, representative IV curves were generated (current-voltage curves) to characterise the intrinsic excitability of TT0023831 and TT0042607 in gramicidin perforated patch clamp studies, and to investigate whether the effects of the three hit compounds identified in the above-described suppressor screens translate to rodent models. The effects of these compounds were evaluated in cultured rat hippocampal neurons using the gramicidin perforated patch technique. The GABAA agonist, muscimol (1 μM), was used to measure EGABA values under basal conditions (FIG. 9). Perfusion of 30 μM TT0011235 potentiated GABAA-mediated currents, both muscimol-activated and endogenous post-synaptic potentials, and shifted the EGABA values (FIG. 9 and Appendix B). […] Treatment with 30 μM TT0042607 slowed the upstroke and repolarization, reduced the input resistant and thus, and reduced the number of open channels.
On the technique in general: In patch-clamp work, channel activity is measured electrically.

Data set [9] has as its system VU0240551-induced phenotype (KCC2 inhibition) in zebrafish larvae.
In data set [10] the test system is zebrafish larvae. It counts as in vivo. The note with it: 5 mM. From the text: In an effort to determine how pharmacological inhibition of KCC2 affects zebrafish behaviors, 7 days post-fertilization (dpf) zebrafish larvae can be treated with two analogs of the selective KCC2 inhibitor, VU0463271 and VU0240551, and their behavioral responses in a battery of behavioral assays can be assessed. These behavioral assays can include a series of visual and acoustic stimuli presented to larval zebrafish in various contexts and combinations to elicit robust and reproducible patterns of activity. For example, behavioral assays can include two acoustic-stimulus-response (ASR1 and ASR2) assays, six visual-stimulus-response (VSR1-VSR6) assays, and three assays that combine acoustic and visual stimulus responses (AVSR1-AVSR3). Together, such a battery of behavioral assays use six stimuli, including red light (600 nm), blue light (420 nm), violet light (405 nm), green light (525 nm), low-intensity sound (60 dB) and high-intensity sound (70 dB). Behavioral responses of the larval zebrafish can be measured by a motion index (MI) that quantifies the motor activity of at least about 8 zebrafish larvae in each well of a 96-well plate.
Referring to FIGS. 1A-1B, zebrafish behavioral profiles can include a battery of individual behavioral assays labeled ASR1, AVSR1, ASR2, VSR1, VSR2, VSR3, VSR4, AVSR2, VSR5, AVSR3, and VSR6, as described herein. These behavioral assays can be combined to form a Motion Index (MI), which is a quantification of the motor activity of at least about 8 zebrafish larvae in each well of a 96-well plate. As shown in the representative images of FIGS. 1A-1B, zebrafish larvae were treated with DMSO (control), VU0463271 (FIG. 1A), or pentylentetrazol or PTZ (FIG. 1B).
Treatment with increasing doses of VU0463271 induced a unique and dose-dependent profile of behavioral responses, detectable at 2.5 μM and 5 μM. […] This relatively low concentration of VU0463271 elicited a reproducible behavioral profile with altered sensitivity of the fish larvae to specific combinations of stimuli. […] The increased MI in the AVSR1 and AVSR3 assays due to VU0463271 treatment reflects a seizure-like hyperexcitability in the larval fish.
Additionally, seizures have been induced in 7 dpf zebrafish larvae using pentylentetrazol (PTZ) treatment, and motor and electroencephalographic (EEG) responses were consistent with seizure phenotypes.

The mark [11] stands for this setting: 10-point CRC, TT002381 to a maximum of 100 μM.

SMILES strings stand for the structures. Where “and” joins values, the source holds several entries; their conditions need not be identical. Identical values can stand only once. Like-named read-outs stand apart in the source and are kept apart here.

Chain of Nav1.2 (Q99250 whole entry): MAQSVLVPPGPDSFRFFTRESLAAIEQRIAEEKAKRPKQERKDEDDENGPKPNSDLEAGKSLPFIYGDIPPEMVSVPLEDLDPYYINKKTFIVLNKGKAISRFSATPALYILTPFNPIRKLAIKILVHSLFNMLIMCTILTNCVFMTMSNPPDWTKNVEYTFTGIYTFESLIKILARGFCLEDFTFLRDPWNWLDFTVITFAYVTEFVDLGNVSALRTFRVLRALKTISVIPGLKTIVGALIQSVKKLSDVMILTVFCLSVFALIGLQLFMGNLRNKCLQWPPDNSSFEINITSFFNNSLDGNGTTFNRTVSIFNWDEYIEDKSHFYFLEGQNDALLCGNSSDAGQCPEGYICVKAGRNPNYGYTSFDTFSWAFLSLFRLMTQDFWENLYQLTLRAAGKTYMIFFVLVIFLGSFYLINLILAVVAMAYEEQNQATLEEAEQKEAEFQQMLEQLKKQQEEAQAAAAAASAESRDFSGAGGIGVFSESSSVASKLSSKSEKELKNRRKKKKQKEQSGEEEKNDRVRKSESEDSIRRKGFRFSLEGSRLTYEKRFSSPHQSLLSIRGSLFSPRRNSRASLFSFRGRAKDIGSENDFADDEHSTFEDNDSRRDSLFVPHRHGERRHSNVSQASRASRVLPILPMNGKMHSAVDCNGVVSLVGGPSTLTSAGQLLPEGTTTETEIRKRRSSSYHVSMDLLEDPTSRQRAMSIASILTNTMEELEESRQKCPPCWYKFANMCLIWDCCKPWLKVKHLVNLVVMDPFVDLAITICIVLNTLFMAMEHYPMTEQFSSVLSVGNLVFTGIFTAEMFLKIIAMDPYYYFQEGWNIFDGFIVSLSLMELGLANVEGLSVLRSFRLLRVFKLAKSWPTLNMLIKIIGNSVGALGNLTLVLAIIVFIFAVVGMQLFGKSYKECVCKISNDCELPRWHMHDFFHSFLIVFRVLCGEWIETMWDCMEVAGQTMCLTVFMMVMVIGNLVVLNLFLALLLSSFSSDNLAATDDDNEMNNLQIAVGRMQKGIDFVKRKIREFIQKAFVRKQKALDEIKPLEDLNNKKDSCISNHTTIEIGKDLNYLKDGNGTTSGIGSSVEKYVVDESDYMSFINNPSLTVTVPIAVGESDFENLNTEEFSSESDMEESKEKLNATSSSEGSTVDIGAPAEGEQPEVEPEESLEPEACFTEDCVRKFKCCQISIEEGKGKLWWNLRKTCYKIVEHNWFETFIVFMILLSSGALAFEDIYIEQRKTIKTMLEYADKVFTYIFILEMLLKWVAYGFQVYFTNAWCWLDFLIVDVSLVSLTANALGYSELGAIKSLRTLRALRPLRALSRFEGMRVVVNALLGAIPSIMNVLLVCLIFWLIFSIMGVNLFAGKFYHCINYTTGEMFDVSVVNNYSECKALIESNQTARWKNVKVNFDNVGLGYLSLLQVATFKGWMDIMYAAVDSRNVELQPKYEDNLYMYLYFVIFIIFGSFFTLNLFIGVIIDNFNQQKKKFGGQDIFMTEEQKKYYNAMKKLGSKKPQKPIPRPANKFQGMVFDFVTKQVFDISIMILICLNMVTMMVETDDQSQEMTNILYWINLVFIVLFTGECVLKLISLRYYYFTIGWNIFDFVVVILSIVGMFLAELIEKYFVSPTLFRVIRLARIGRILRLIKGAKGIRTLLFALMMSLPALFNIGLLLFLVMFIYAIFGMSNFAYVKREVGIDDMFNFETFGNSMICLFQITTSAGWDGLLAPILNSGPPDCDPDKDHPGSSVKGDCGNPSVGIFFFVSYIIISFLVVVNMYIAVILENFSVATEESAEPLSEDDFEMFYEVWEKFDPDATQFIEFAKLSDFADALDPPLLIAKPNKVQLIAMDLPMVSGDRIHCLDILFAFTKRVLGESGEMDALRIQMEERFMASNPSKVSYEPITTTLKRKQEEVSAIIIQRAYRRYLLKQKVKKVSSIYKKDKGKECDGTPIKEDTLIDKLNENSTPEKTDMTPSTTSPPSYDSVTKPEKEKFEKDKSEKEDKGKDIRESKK
Chain of Nav1.6 (Q9UQD0 whole entry): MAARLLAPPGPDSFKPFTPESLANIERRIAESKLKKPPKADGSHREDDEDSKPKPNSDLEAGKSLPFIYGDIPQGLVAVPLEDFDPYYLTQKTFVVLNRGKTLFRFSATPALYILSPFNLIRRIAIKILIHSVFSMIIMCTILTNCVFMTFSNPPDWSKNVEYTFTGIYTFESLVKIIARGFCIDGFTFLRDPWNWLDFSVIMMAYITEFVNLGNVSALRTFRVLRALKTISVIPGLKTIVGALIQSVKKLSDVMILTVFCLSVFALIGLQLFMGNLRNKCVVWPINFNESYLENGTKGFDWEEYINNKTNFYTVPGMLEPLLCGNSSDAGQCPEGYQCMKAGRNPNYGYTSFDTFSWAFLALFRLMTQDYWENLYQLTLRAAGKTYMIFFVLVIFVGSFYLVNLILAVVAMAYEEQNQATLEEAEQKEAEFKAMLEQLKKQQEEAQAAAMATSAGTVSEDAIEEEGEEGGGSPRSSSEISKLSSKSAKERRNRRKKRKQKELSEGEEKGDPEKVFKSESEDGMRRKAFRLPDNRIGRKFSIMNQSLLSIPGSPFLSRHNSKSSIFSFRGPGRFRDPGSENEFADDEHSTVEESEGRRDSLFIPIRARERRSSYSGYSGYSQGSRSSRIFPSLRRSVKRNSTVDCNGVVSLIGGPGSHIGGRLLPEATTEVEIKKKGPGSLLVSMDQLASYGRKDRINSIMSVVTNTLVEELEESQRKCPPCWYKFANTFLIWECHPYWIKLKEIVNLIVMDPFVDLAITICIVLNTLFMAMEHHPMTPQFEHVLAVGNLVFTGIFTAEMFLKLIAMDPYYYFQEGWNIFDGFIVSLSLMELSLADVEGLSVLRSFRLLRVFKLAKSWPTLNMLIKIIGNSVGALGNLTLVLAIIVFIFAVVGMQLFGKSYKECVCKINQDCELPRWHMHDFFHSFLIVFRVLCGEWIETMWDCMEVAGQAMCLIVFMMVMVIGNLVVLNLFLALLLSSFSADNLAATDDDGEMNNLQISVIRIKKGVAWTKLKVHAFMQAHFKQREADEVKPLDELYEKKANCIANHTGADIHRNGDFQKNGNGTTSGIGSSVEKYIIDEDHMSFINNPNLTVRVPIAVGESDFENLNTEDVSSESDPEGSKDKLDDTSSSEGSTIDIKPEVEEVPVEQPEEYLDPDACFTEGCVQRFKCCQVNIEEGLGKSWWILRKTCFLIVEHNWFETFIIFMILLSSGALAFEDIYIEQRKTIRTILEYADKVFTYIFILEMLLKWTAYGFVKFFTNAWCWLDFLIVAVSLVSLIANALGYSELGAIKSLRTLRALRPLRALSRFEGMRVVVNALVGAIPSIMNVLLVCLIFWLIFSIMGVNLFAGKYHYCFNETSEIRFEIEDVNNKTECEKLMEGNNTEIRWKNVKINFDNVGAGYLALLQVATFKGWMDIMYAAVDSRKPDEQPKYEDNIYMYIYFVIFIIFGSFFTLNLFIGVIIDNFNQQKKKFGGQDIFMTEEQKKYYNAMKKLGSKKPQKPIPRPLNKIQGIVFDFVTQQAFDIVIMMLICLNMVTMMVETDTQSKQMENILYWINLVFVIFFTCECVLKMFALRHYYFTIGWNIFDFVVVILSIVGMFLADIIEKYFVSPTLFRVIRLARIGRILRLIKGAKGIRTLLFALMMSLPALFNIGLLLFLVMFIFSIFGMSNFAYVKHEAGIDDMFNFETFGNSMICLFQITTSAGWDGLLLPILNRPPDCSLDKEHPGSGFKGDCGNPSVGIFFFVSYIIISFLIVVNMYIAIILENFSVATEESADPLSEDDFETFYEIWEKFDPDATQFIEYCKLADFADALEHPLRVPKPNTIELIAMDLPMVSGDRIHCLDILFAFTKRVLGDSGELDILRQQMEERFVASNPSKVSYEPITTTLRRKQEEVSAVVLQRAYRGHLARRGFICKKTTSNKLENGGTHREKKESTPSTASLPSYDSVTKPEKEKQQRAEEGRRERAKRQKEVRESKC

Consider `CCCCNc1ccc(C(=O)OCCN(C)C)cc1` [tetracaine], for which the “inhibition of Nav1.1” value in data set [1] (setting [11]) is given as “concentration-dependent inhibition”. Moreover, in data set [2] (setting [11]), the “inhibition of Nav1.2” value is recorded as “concentration-dependent inhibition”. Besides, the “inhibition of Nav1.6” value in data set [3] (setting [11]) is listed as “concentration-dependent inhibition”.
As for `COc1cc(C)c(C(C)C)cc1S(=O)(=O)NCCN1CCOCC1` [TT0023831, 5-isopropyl-2-methoxy-4-methyl-N-(2-morpholinoethyl)benzene-sulfonamide], the “overall motor activity of the larvae” value in data set [4] (80 μM, reduced the rescue score) is “reduced the overall motor activity”. Moreover, the EC50 – broadly, the midpoint of the concentration-response curve – in [4] (Danio rerio, read-out: in vivo EC50) turned out to be 5 µM. In [4] (concentration of peak effect, doses 2.5-320 uM, suppression of KCC2-inhibited phenotype in zebrafish), this molecule had a peak activity of 20 µM. In addition, in [4] (tested at 2.5-80 μM, high rescue scores), the “concentration of best phenotypic reversal” value was 20 µM and 40 µM. Moreover, in [4], the “suppression score dose response compared with other compounds as suppressor of the hyperexcitability phenotype” value was “outperform both tiagabine and valproic acid”. For the same molecule, the “suppression of PTZ-induced hyperactivity in response to the different stimuli” value (“suppression … to the different stimuli” below) in data set [5] was “did not”. In addition, the “Rescued (6 Hz model)” value in [6] (50 mg/kg) is reported as 0/8. In data set [6] (100 mg/kg), the “Rescued (6 Hz model)” value is 3/8. Besides, the “Rescued (6 Hz model)” value in data set [6] (200 mg/kg) was 7/8. Besides, the “Rescued (MES model)” value in [7] (10 mg/kg) was 0/4. Further, the “Rescued (MES model)” value in data set [7] (30 mg/kg) is 2/4. The “Rescued (MES model)” value in [7] (100 mg/kg) was 2/4. Moreover, in data set [8], the “effect on GABAA-mediated currents” value was “neither TT0023831 nor TT0042607 appeared to have an effect”, the “firing rates of the cultured neurons” value is recorded as “reduced the firing rates” and the spike initiation result is listed as “delayed spike initiation”. In data set [8] (30 μM), the action potential threshold entry was “raising”, the input resistant result is listed as “without changing”, the “number of open channels (open at rest)” value is reported as “without affecting” and the rheobase entry is reported as “increased”. The “inhibition of Nav1.1” value in data set [1] (setting [11]) is recorded as “concentration-dependent inhibition”. The “inhibition of Nav1.2” value in data set [2] (setting [11]) was “concentration-dependent inhibition”. Also, the “inhibition of Nav1.6” value in [3] (setting [11]) is recorded as “concentration-dependent inhibition”.
As to `NC1=N[C@H](O)[C@H]2[C@H]3O[C@]4(O)O[C@@H]([C@@H](O)[C@@]2(N1)[C@@H]4O)[C@]3(O)CO` [TTX, tetrodotoxin], the “inhibition of Nav1.1” value in data set [1] is listed as “concentration-dependent inhibition”. The “inhibition of Nav1.2” value in data set [2] is “concentration-dependent inhibition”. Besides, the “inhibition of Nav1.6” value in data set [3] is recorded as “concentration-dependent inhibition”.
Take `Cc1ccc(-c2nc(N3CCOCC3)sc2C(=O)NCC2CCCO2)cc1` (stereo not drawn) [TT0011235]: the “suppression … to the different stimuli” value in data set [5] is “attenuated”. Also, in [8] (perfusion of 30 μM), the EGABA values result is “shifted”; the “GABAA-mediated currents (muscimol-activated and endogenous post-synaptic potentials)” value was “potentiated”. In [9] (at concentrations higher than 20 μM), the “effect on overall MI” value is listed as “inhibitory effect”. Also, in data set [9] (tested at 2.5-80 μM), the “concentration of most effective phenotypic reversal” value is 20 µM and the “rescue of VU0240551-induced behaviors” value is “rescued”.
`C1CCc2nnnn2CC1` [PTZ, pentylentetrazol]: the “activity and MI in response to multiple light and acoustic stimuli” value in data set [10] is on record as “induced hyperactivity”.
As to `CCCOc1nn(CCC)cc1C(=O)Nc1ccc(C(F)(F)F)cc1` [TT0042607, 3-propoxy-1-propyl-N-(4-(trifluoromethyl)phen-yl)-1H-pyrazole-4-carboxamide], the “effect on the overall MI” value in data set [4] (sub-micromolar or higher concentrations (tested 0.08-2.5 μM)) is “no effect”. In data set [4] (tested at 0.08-2.5 μM, already at sub-micromolar concentrations), the “rescue of VU0463271-induced behaviors” value is given as “rescued”. In data set [4], the “suppression score dose response compared with other compounds as suppressor of the hyperexcitability phenotype” value is “outperform both tiagabine and valproic acid”. In data set [5], the “suppression … to the different stimuli” value was “attenuated”. Also, in data set [6] (10 mg/kg), the “Rescued (6 Hz model)” value is reported as 0/4. The “Rescued (6 Hz model)” value in data set [6] (30 mg/kg) is 0/4. Moreover, the “Rescued (6 Hz model)” value in data set [6] (100 mg/kg) was 1/4. In data set [7] (10 mg/kg), the “Rescued (MES model)” value is reported as 0/4. Further, in data set [7] (30 mg/kg), the “Rescued (MES model)” value was 0/4. In data set [7] (100 mg/kg), the “Rescued (MES model)” value is reported as 2/4. In data set [8], the “effect on GABAA-mediated currents” value is listed as “neither TT0023831 nor TT0042607 appeared to have an effect”, the “firing rates of the cultured neurons” value was “reduced the firing rates” and the spike initiation result was “delayed spike initiation”. Also, in data set [8] (30 μM), the input resistant entry is on record as “reduced”; the “number of open channels (open at rest)” value is recorded as “reduced”; the upstroke and repolarization entry is reported as “slowed”.
